Source: ChEMBL document CHEMBL1139006, “Synthesis and in vitro antibiotic activity of 16-membered 9-O-arylalkyloxime macrolides” (2006)
≈ marks a conversion by molar mass, not a printed value.

How the values were obtained:
Assay type in all cases: functional
[1] = test system: Streptococcus pneumoniae; assay: Antibacterial activity against Streptococcus pneumoniae ATCC 6301
[2] = test system: Streptococcus pneumoniae; assay: Antibacterial activity against Streptococcus pneumoniae ATCC 700671
[3] = test system: Streptococcus pneumoniae; assay: Antibacterial activity against macrolide resistant Streptococcus pneumoniae ATCC 700676
[4] = test system: Streptococcus pneumoniae; assay: Antibacterial activity against macrolide resistant Streptococcus pneumoniae ATCC 700677
[5] = test system: Streptococcus pneumoniae; assay: Antibacterial activity against macrolide resistant Streptococcus pneumoniae ATCC 700905
[6] = test system: Streptococcus pneumoniae; assay: Antibacterial activity against macrolide resistant Streptococcus pneumoniae ATCC 700906
[7] = test system: Streptococcus pneumoniae; assay: Antibacterial activity against Streptococcus pneumoniae ATCC 49619
[8] = test system: Staphylococcus aureus; assay: Antibacterial activity against Staphylococcus aureus ATCC 6538p
[9] = test system: Staphylococcus aureus; assay: Antibacterial activity against macrolide resistant Staphylococcus aureus ATCC 33591
[10] = test system: Staphylococcus aureus; assay: Antibacterial activity against macrolide resistant Staphylococcus aureus ATCC 141541
[11] = test system: Staphylococcus aureus; assay: Antibacterial activity against macrolide resistant Staphylococcus aureus ATCC BAA-39
[12] = test system: Staphylococcus aureus; assay: Antibacterial activity against macrolide resistant Staphylococcus aureus ATCC BAA-44
[13] = test system: Staphylococcus aureus; assay: Antibacterial activity against Staphylococcus aureus ATCC 29213
[14] = test system: Staphylococcus epidermidis; assay: Antibacterial activity against Staphylococcus epidermidis ATCC 12228
[15] = test system: Enterococcus faecalis; assay: Antibacterial activity against Enterococcus faecalis ATCC 51575

Row | Compound | MIC [1] [µg/mL] | MIC [2] [µg/mL] | MIC [3] [µg/mL] | MIC [4] [µg/mL] | MIC [5] [µg/mL] | MIC [6] [µg/mL] | MIC [7] [µg/mL] | MIC [8] [µg/mL] | MIC [9] [µg/mL] | MIC [10] [µg/mL] | MIC [11] [µg/mL] | MIC [12] [µg/mL] | MIC [13] [µg/mL] | MIC [14] [µg/mL] | MIC [15] [µg/mL]
1 | CC[C@H]1OC(=O)C[C@@H](O)[C@H](C)[C@@H](O[C@@H]2O[C@H](C)[C@@H](O)[C@H](N(C)C)[C@H]2O)[C@@H](CC=O)C[C@@H](C)C(=N/OCCCCOc2ccc3ncccc3c2)/C=C/C(C)=C/C1CO (stereo not given in full) | 0.025 (≈ 0.0308 µM) | 0.025 (≈ 0.0308 µM) | 0.025 (≈ 0.0308 µM) | 0.39 (≈ 0.48 µM) | 0.025 (≈ 0.0308 µM) | > 12.5 | 0.01 (≈ 0.0123 µM) | 0.2 (≈ 0.246 µM) | > 12.5 | 0.78 (≈ 0.961 µM) | > 12.5 | > 12.5 | 0.78 (≈ 0.961 µM) | 0.2 (≈ 0.246 µM) | > 12.5
2 | CC[C@H]1OC(=O)C[C@@H](O)[C@H](C)[C@@H](O[C@@H]2O[C@H](C)[C@@H](O)[C@H](N(C)C)[C@H]2O)[C@@H](CC=O)C[C@@H](C)C(=N\OCCOc2ccccc2)/C=C/C(C)=C/C1CO (stereo not given in full) | 0.098 (≈ 0.134 µM) | 0.39 (≈ 0.532 µM) | 0.2 (≈ 0.273 µM) | 1.56 (≈ 2.13 µM) | 0.78 (≈ 1.06 µM) | > 12.5 | 0.2 (≈ 0.273 µM) | 1.56 (≈ 2.13 µM) | > 12.5 | 3.12 (≈ 4.26 µM) | > 12.5 | > 12.5 | 3.12 (≈ 4.26 µM) | 1.56 (≈ 2.13 µM) | > 12.5
3 | CC[C@H]1OC(=O)C[C@@H](O)[C@H](C)[C@@H](O[C@@H]2O[C@H](C)[C@@H](O)[C@H](N(C)C)[C@@H]2O)[C@@H](CCN2CC(C)CC(C)C2)C[C@@H](C)C(=N/O)/C=C/C(C)=C/C1CO (stereo not given in full) | 0.78 (≈ 1.1 µM) | 1.56 (≈ 2.2 µM) | 6.25 (≈ 8.8 µM) | > 12.5 | 6.25 (≈ 8.8 µM) | > 12.5 | 1.56 (≈ 2.2 µM) | 3.12 (≈ 4.39 µM) | > 12.5 | > 12.5 | > 12.5 | > 12.5 | 12.5 (≈ 17.6 µM) | > 12.5 | > 12.5
4 | CC[C@H]1OC(=O)C[C@@H](O)[C@H](C)[C@@H](O[C@@H]2O[C@H](C)[C@@H](O)[C@H](N(C)C)[C@@H]2O)[C@@H](CCN2CC(C)CC(C)C2)C[C@@H](C)C(=O)/C=C/C(C)=C/C1CO (stereo not given in full) | 0.39 (≈ 0.561 µM) | 0.78 (≈ 1.12 µM) | 1.56 (≈ 2.24 µM) | > 12.5 | 1.56 (≈ 2.24 µM) | > 12.5 | 0.78 (≈ 1.12 µM) | 0.39 (≈ 0.561 µM) | > 12.5 | 1.56 (≈ 2.24 µM) | > 12.5 | > 12.5 | 1.56 (≈ 2.24 µM) | 0.78 (≈ 1.12 µM) | > 12.5
5 | CC[C@H]1OC(=O)C[C@@H](O)[C@H](C)[C@@H](O[C@@H]2O[C@H](C)[C@@H](O)[C@H](N(C)C)[C@@H]2O)[C@@H](CCN2CC(C)CC(C)C2)C[C@@H](C)C(=N\OCCCc2ccc3ncccc3c2)/C=C/C(C)=C/C1CO (stereo not given in full) | 6.25 (≈ 7.11 µM) | 6.25 (≈ 7.11 µM) | 12.5 (≈ 14.2 µM) | > 12.5 | 12.5 (≈ 14.2 µM) | > 12.5 | 6.25 (≈ 7.11 µM) | > 12.5 | > 12.5 | > 12.5 | > 12.5 | > 12.5 | > 12.5 | > 12.5 | > 12.5
6 | CC[C@H]1OC(=O)C[C@@H](O)[C@H](C)[C@@H](O[C@@H]2O[C@H](C)[C@@H](O)[C@H](N(C)C)[C@@H]2O)[C@@H](CCN2CC(C)CC(C)C2)C[C@@H](C)C(=N\OCCCCc2ccc3ccccc3c2)/C=C/C(C)=C/C1CO (stereo not given in full) | 6.25 (≈ 7 µM) | 12.5 (≈ 14 µM) | > 12.5 | > 12.5 | 12.5 (≈ 14 µM) | > 12.5 | 12.5 (≈ 14 µM) | > 12.5 | > 12.5 | > 12.5 | > 12.5 | > 12.5 | > 12.5 | > 12.5 | > 12.5
7 | CC[C@H]1OC(=O)C[C@@H](O)[C@H](C)[C@@H](O[C@@H]2O[C@H](C)[C@@H](O)[C@H](N(C)C)[C@@H]2O)[C@@H](CCN2CC(C)CC(C)C2)C[C@@H](C)C(=N\OCCOc2ccccc2)/C=C/C(C)=C/C1CO (stereo not given in full) | 0.2 (≈ 0.241 µM) | 0.39 (≈ 0.47 µM) | 0.78 (≈ 0.94 µM) | > 12.5 | 0.39 (≈ 0.47 µM) | > 12.5 | 0.39 (≈ 0.47 µM) | 0.78 (≈ 0.94 µM) | > 12.5 | 6.25 (≈ 7.53 µM) | > 12.5 | > 12.5 | 6.25 (≈ 7.53 µM) | 6.25 (≈ 7.53 µM) | > 12.5
8 | CC[C@H]1OC(=O)C[C@@H](O)[C@H](C)[C@@H](O[C@@H]2O[C@H](C)[C@@H](O)[C@H](N(C)C)[C@@H]2O)[C@@H](CCN2CC(C)CC(C)C2)C[C@@H](C)C(=N/OCCCc2ccc3ncccc3c2)/C=C/C(C)=C/C1CO (stereo not given in full) | 6.25 (≈ 7.11 µM) | 6.25 (≈ 7.11 µM) | > 12.5 | > 12.5 | > 12.5 | > 12.5 | 6.25 (≈ 7.11 µM) | 12.5 (≈ 14.2 µM) | > 12.5 | > 12.5 | > 12.5 | > 12.5 | > 12.5 | > 12.5 | > 12.5
9 | CC[C@H]1OC(=O)C[C@@H](O)[C@H](C)[C@@H](O[C@@H]2O[C@H](C)[C@@H](O)[C@H](N(C)C)[C@@H]2O)[C@@H](CCN2CC(C)CC(C)C2)C[C@@H](C)C(=N\OCc2ccc(F)cc2)/C=C/C(C)=C/C1CO (stereo not given in full) | 0.39 (≈ 0.477 µM) | 0.39 (≈ 0.477 µM) | 0.39 (≈ 0.477 µM) | > 12.5 | 0.39 (≈ 0.477 µM) | > 12.5 | 0.39 (≈ 0.477 µM) | 0.78 (≈ 0.953 µM) | > 12.5 | 3.12 (≈ 3.81 µM) | > 12.5 | > 12.5 | 3.12 (≈ 3.81 µM) | 3.12 (≈ 3.81 µM) | > 12.5
10 | CC[C@H]1OC(=O)C[C@@H](O)[C@H](C)[C@@H](O[C@@H]2O[C@H](C)[C@@H](O)[C@H](N(C)C)[C@H]2O)[C@@H](CC=O)C[C@@H](C)C(=N/OCCOc2ccccc2)/C=C/C(C)=C/C1CO (stereo not given in full) | 0.025 (≈ 0.0341 µM) | 0.025 (≈ 0.0341 µM) | 0.025 (≈ 0.0341 µM) | 0.39 (≈ 0.532 µM) | 0.025 (≈ 0.0341 µM) | > 12.5 | 0.01 (≈ 0.0136 µM) | 0.098 (≈ 0.134 µM) | > 12.5 | 0.39 (≈ 0.532 µM) | > 12.5 | > 12.5 | 0.2 (≈ 0.273 µM) | 0.2 (≈ 0.273 µM) | > 12.5
11 | CC[C@H]1OC(=O)C[C@@H](O)[C@H](C)[C@@H](O[C@@H]2O[C@H](C)[C@@H](O)[C@H](N(C)C)[C@H]2O)[C@@H](CC=O)C[C@@H](C)C(=N\OCc2ccccc2)/C=C/C(C)=C/C1CO (stereo not given in full) | 0.2 (≈ 0.285 µM) | 0.39 (≈ 0.555 µM) | 0.2 (≈ 0.285 µM) | 3.12 (≈ 4.44 µM) | 0.39 (≈ 0.555 µM) | > 12.5 | 0.2 (≈ 0.285 µM) | 0.78 (≈ 1.11 µM) | > 12.5 | 1.56 (≈ 2.22 µM) | > 12.5 | > 12.5 | 1.56 (≈ 2.22 µM) | 1.56 (≈ 2.22 µM) | > 12.5
12 | CC[C@H]1OC(=O)C[C@@H](O)[C@H](C)[C@@H](O[C@@H]2O[C@H](C)[C@@H](O)[C@H](N(C)C)[C@@H]2O)[C@@H](CCN2CC(C)CC(C)C2)C[C@@H](C)C(=N\OCC(=O)N2CCN(c3ccccc3)CC2)/C=C/C(C)=C/C1CO (stereo not given in full) | 0.049 (≈ 0.0537 µM) | 0.098 (≈ 0.107 µM) | 4.56 (≈ 5 µM) | > 12.5 | 0.78 (≈ 0.855 µM) | > 12.5 | 0.049 (≈ 0.0537 µM) | 0.39 (≈ 0.428 µM) | > 12.5 | 3.12 (≈ 3.42 µM) | > 12.5 | > 12.5 | 1.56 (≈ 1.71 µM) | 0.78 (≈ 0.855 µM) | > 12.5
13 | CC[C@H]1OC(=O)C[C@@H](O)[C@H](C)[C@@H](O[C@@H]2O[C@H](C)[C@@H](O)[C@H](N(C)C)[C@@H]2O)[C@@H](CCN2CC(C)CC(C)C2)C[C@@H](C)C(=N/OCCCCc2ccc3ncccc3c2)/C=C/C(C)=C/C1CO (stereo not given in full) | 1.56 (≈ 1.75 µM) | 3.12 (≈ 3.49 µM) | 6.25 (≈ 7 µM) | > 12.5 | 6.25 (≈ 7 µM) | > 12.5 | 6.25 (≈ 7 µM) | 6.25 (≈ 7 µM) | > 12.5 | > 12.5 | > 12.5 | > 12.5 | 12.5 (≈ 14 µM) | > 12.5 | > 12.5
14 | CC[C@H]1OC(=O)C[C@@H](O)[C@H](C)[C@@H](O[C@@H]2O[C@H](C)[C@@H](O)[C@H](N(C)C)[C@H]2O)[C@@H](CCN2C[C@H](C)C[C@H](C)C2)C[C@@H](C)C(=O)/C=C/C(C)=C/[C@@H]1CO[C@@H]1O[C@H](C)[C@@H](O)[C@@H](OC)[C@H]1OC [TILMICOSIN] | 0.39 (≈ 0.449 µM) | 0.78 (≈ 0.897 µM) | 0.78 (≈ 0.897 µM) | 6.25 (≈ 7.19 µM) | 1.56 (≈ 1.79 µM) | > 12.5 | 1.56 (≈ 1.79 µM) | 0.098 (≈ 0.113 µM) | > 12.5 | 0.39 (≈ 0.449 µM) | > 12.5 | > 12.5 | 0.2 (≈ 0.23 µM) | 0.098 (≈ 0.113 µM) | > 12.5
15 | CC[C@H]1OC(=O)C[C@@H](O)[C@H](C)[C@@H](O[C@@H]2O[C@H](C)[C@@H](O[C@H]3C[C@@](C)(O)[C@@H](O)[C@H](C)O3)[C@H](N(C)C)[C@H]2O)[C@@H](CC=O)C[C@@H](C)C(=O)/C=C/C(C)=C/[C@@H]1CO[C@@H]1O[C@H](C)[C@@H](O)[C@@H](OC)[C@H]1OC [TYLOSIN] | 0.098 (≈ 0.107 µM) | 0.2 (≈ 0.218 µM) | 0.2 (≈ 0.218 µM) | > 12.5 | 0.2 (≈ 0.218 µM) | > 12.5 | 0.098 (≈ 0.107 µM) | 0.2 (≈ 0.218 µM) | > 12.5 | 1.56 (≈ 1.7 µM) | > 12.5 | > 12.5 | 1.56 (≈ 1.7 µM) | 0.39 (≈ 0.426 µM) | > 12.5
